Data on 24 compounds can be found in US8288552B2, “Dihydropyridone amidesas P2X7 modulators” (Roche Palo Alto LLC, priority 2008, dated 2012).

The experiment deals with T1, P2X7 (UniProt Q99572).
T1 sequence (Q99572 1-595): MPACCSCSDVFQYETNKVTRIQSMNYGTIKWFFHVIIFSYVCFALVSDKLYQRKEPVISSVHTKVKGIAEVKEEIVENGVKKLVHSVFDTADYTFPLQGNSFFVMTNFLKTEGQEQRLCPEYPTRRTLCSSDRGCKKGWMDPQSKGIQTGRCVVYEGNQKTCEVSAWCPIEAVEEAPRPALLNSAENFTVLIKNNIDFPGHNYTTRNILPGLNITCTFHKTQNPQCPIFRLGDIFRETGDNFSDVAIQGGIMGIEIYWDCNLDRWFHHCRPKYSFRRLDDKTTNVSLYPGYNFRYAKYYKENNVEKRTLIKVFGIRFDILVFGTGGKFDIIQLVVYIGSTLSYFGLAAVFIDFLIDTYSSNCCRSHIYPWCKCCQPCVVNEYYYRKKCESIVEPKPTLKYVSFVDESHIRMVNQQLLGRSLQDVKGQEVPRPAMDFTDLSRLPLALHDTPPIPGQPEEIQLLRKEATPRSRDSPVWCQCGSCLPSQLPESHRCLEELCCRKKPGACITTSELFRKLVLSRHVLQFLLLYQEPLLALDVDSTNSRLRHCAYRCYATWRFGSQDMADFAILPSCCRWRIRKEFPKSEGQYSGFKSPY
Nature of the experiment: P2X7 pKi of Table 1. It is filed as cell-based. A digest of the protocol:
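Human P2X7 in 1321N1 cells and rat P2X7 in HEK293 cells, loaded with fluo-3 for 1 hr at 37° C, then exposed to antagonist for 20 min at room temperature. BzATP agonist was used at 100 μM final (human) or 5 μM final (rat), with fluorescence read for 5 min. The response was normalized to maximal fluorescence evoked by 5 μM ionomycin.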
With `COc1cc(C)c(NC(=O)C2=CN(CCO)C(=O)CC2c2ccc(F)cc2)cc1OC` (stereo not drawn) [Compound 79, 4-(4-Fluoro-phenyl)-1-(2-hydroxy-ethyl)-6-oxo-1,4,5,6-tetrahydro-pyridine-3-carboxylic acid(4,5-dimethoxy-2-methyl-phenyl)-amide], the negative-log Ki (pKi) (in general, the negative decadic logarithm of the Ki, by convention in mol/L) is 7.42. The result for `Cc1ccc(C(C)O)cc1NC(=O)C1=CNC(=O)C[C@H]1c1ccc(F)cc1` (stereo partly drawn) [Compound 80, (S)-4-(4-Fluoro-phenyl)-6-oxo-1,4,5,6-tetrahydro-pyridine-3-carboxylic acid[5-(1-hydroxy-ethyl)-2-methyl-phenyl]-amide] reads 7.59. Under `Cc1cc(Cl)c(OCC(O)CO)cc1NC(=O)C1=CNC(=O)C[C@H]1c1cccc(F)c1` (stereo partly drawn) [Compound 81, (S)-4-(3-Fluoro-phenyl)-6-oxo-1,4,5,6-tetrahydro-pyridine-3-carboxylic acid[4-chloro-5-(2,3-dihydroxy-propoxy)-2-methyl-phenyl]-amide] stands 5.76; under `COc1cc(NC(=O)C2=CNC(=O)C[C@H]2c2cccc(F)c2)c(C)cc1F` [Compound 82, (S)-4-(3-Fluoro-phenyl)-6-oxo-1,4,5,6-tetrahydro-pyridine-3-carboxylic acid(4-fluoro-5-methoxy-2-methyl-phenyl)-amide], 7.975; under `Cc1ccccc1CNC(=O)C1=CNC(=O)C[C@H]1c1cccc(F)c1` [Compound 83, (S)-4-(3-Fluoro-phenyl)-6-oxo-1,4,5,6-tetrahydro-pyridine-3-carboxylic acid 2-methyl-benzylamide], 6.17.

Regarding `O=C1C[C@@H](c2cccc(F)c2)C(C(=O)NCc2ccccc2Cl)=CN1` [Compound 84, (S)-4-(3-Fluoro-phenyl)-6-oxo-1,4,5,6-tetrahydro-pyridine-3-carboxylic acid 2-chloro-benzylamide], the pKi amounted to 6.365. Compound `CC(=O)COc1cc(NC(=O)C2=CNC(=O)C[C@H]2c2cccc(F)c2)c(C)cc1F` [Compound 85, (S)-4-(3-Fluoro-phenyl)-6-oxo-1,4,5,6-tetrahydro-pyridine-3-carboxylic acid[4-fluoro-2-methyl-5-(2-oxo-propoxy)-phenyl]-amide] yielded a pKi of 6.705. As to `Cc1c(F)cccc1NC(=O)C1=CNC(=O)C[C@H]1c1ccc(F)cc1` [Compound 87, (S)-4-(4-Fluoro-phenyl)-6-oxo-1,4,5,6-tetrahydro-pyridine-3-carboxylic acid(3-fluoro-2-methyl-phenyl)-amide], the pKi stood at 6.63.

In the case of `Cc1c(Cl)cccc1NC(=O)C1=CNC(=O)C[C@H]1c1cccc(F)c1` [Compound 88, (S)-4-(3-Fluoro-phenyl)-6-oxo-1,4,5,6-tetrahydro-pyridine-3-carboxylic acid(3-chloro-2-methyl-phenyl)-amide], the pKi amounted to 7.915. The result for `Cc1ccc([C@@H](C)O)cc1NC(=O)C1=CNC(=O)C[C@H]1c1ccc(F)cc1` [Compound 89, (S)-4-(4-Fluoro-phenyl)-6-oxo-1,4,5,6-tetrahydro-pyridine-3-carboxylic acid[5-((R)-1-hydroxy-ethyl)-2-methyl-phenyl]-amide] reads 7.443; that for `Cc1ccc([C@H](C)O)cc1NC(=O)C1=CNC(=O)C[C@H]1c1ccc(F)cc1` [Compound 90, (S)-4-(4-Fluoro-phenyl)-6-oxo-1,4,5,6-tetrahydro-pyridine-3-carboxylic acid[5-((S)-1-hydroxy-ethyl)-2-methyl-phenyl]-amide], 7.19; that for `COc1cc(C)c(NC(=O)C2=CN(C)C(=O)C(C)C2c2ccc(F)cc2)cc1OC` (stereo not drawn) [Compound 91, 4-(4-Fluoro-phenyl)-1,5-dimethyl-6-oxo-1,4,5,6-tetrahydro-pyridine-3-carboxylic acid(4,5-dimethoxy-2-methyl-phenyl)-amide], 5.65.

For `Cc1ccc(Cl)cc1NC(=O)C1=CNC(=O)C[C@H]1c1cccc(F)c1` [Compound 92, (S)-4-(3-Fluoro-phenyl)-6-oxo-1,4,5,6-tetrahydro-pyridine-3-carboxylic acid(5-chloro-2-methyl-phenyl)-amide], the negative-log Ki (pKi) was determined as 6.995.

Regarding `CC(=O)c1ccc(C)c(NC(=O)C2=CNC(=O)C[C@H]2c2ccc(F)cc2)c1` [Compound 93, (S)-4-(4-Fluoro-phenyl)-6-oxo-1,4,5,6-tetrahydro-pyridine-3-carboxylic acid(5-acetyl-2-methyl-phenyl)-amide], the pKi stood at 6.86. The compound `Cc1c(Cl)cccc1NC(=O)C1=CNC(=O)C[C@H]1c1ccc(F)cc1` [Compound 94, (S)-4-(4-Fluoro-phenyl)-6-oxo-1,4,5,6-tetrahydro-pyridine-3-carboxylic acid(3-chloro-2-methyl-phenyl)-amide] registered a pKi of 7.83. Under `O=C1C[C@@H](c2ccc(F)cc2)C(C(=O)Nc2ccccc2C(F)(F)F)=CN1` [Compound 95, (S)-4-(4-Fluoro-phenyl)-6-oxo-1,4,5,6-tetrahydro-pyridine-3-carboxylic acid(2-trifluoromethyl-phenyl)-amide] stands 6.26; under `O=C1C[C@@H](c2ccc(F)cc2)C(C(=O)NCc2ccccc2Cl)=CN1` [Compound 97, (S)-4-(4-Fluoro-phenyl)-6-oxo-1,4,5,6-tetrahydro-pyridine-3-carboxylic acid 2-chloro-benzylamide], 6.16; under `Cc1ccc(OC(F)(F)F)cc1NC(=O)C1=CNC(=O)C[C@H]1c1ccc(F)cc1` [Compound 99, (S)-4-(4-Fluoro-phenyl)-6-oxo-1,4,5,6-tetrahydro-pyridine-3-carboxylic acid(2-methyl-5-trifluoromethoxy-phenyl)-amide], 6.755. For the compound `Cc1c(CCO)cccc1NC(=O)C1=CNC(=O)C[C@H]1c1ccc(F)cc1` [Compound 100, (S)-4-(4-Fluoro-phenyl)-6-oxo-1,4,5,6-tetrahydro-pyridine-3-carboxylic acid[3-(2-hydroxy-ethyl)-2-methyl-phenyl]-amide], the negative logarithm of the Ki (pKi) was 6.803. `Cc1ccccc1NC(=O)C1=CNC(=O)C[C@H]1c1ccc(F)cc1` [Compound 101, (S)-4-(4-Fluoro-phenyl)-6-oxo-1,4,5,6-tetrahydro-pyridine-3-carboxylic acid o-tolylamide]: the pKi is listed as 6.415. Under `CCc1c(NC(=O)C2=CNC(=O)CC2c2ccc(F)cc2)cccc1OC` (stereo not drawn) [Compound 102, 4-(4-Fluoro-phenyl)-6-oxo-1,4,5,6-tetrahydro-pyridine-3-carboxylic acid(2-ethyl-3-methoxy-phenyl)-amide] stands 7.316. Under `Cc1cccc(NC(=O)C2=CNC(=O)C[C@H]2c2ccc(F)cc2)c1Cl` [Compound 103, (S)-4-(4-Fluoro-phenyl)-6-oxo-1,4,5,6-tetrahydro-pyridine-3-carboxylic acid(2-chloro-3-methyl-phenyl)-amide] stands 7.44.

On to `Cc1cc(Cl)c(CO)cc1NC(=O)C1=CNC(=O)C[C@H]1c1ccc(F)cc1` [Compound 104, (S)-4-(4-Fluoro-phenyl)-6-oxo-1,4,5,6-tetrahydro-pyridine-3-carboxylic acid(4-chloro-5-hydroxymethyl-2-methyl-phenyl)-amide], for which the negative-log Ki (pKi) was 7.21. The result for `Cc1cc(CCO)ccc1NC(=O)C1=CNC(=O)C[C@H]1c1ccc(F)cc1` [Compound 105, (S)-4-(4-Fluoro-phenyl)-6-oxo-1,4,5,6-tetrahydro-pyridine-3-carboxylic acid[4-(2-hydroxy-ethyl)-2-methyl-phenyl]-amide] reads 6.77.
